Assay results: patent US20120114797A1, “TALAROMYCES STRAINS AND ENZYME COMPOSITIONS” (DSM IP ASSETS B.V., priority 2009, published 2012)

Key:
TEC-142 = experiment: MIC of glucose analogs on YNB+agar plates, TEC-142; type: cell-based, Talaromyces emersonii; details: 10^7/ml spore suspensions of TEC-142 on YNB+agar plates
Method: MIC values of various glucose analogs (2-deoxyglucose, 1-thioglucose, 5-thioglucose) are determined by examining growth after inoculation of 0.1 ml dilutions of 10^7/ml spore suspensions of TEC-142 on YNB+agar plates with increasing concentrations of analogs.
The MIC value of 2-deoxyglucose (DOG) was determined by examining growth after inoculation of 0.1 ml dilutions of 10^7/ml spore suspensions of TEC-142 on YNB+agar plates with increasing concentrations of analog.

TEC-180 = experiment: MIC of 2-deoxyglucose on YNB+agar plates, TEC-180; type: cell-based, Talaromyces emersonii; details: 10^7/ml spore suspensions of TEC-180 on YNB+agar plates

Compound `OC[C@@H](O)[C@@H](O)[C@H](O)[C@@H](O)C=S` [1-thioglucose] has an MIC (TEC-142) of 4000 µg/mL.

`O=CC[C@@H](O)[C@H](O)[C@H](O)CO` [2-deoxyglucose, 2-deoxy-D-glucose] showed an MIC (TEC-180) of 500 µg/mL and an MIC (TEC-142) of 500 µg/mL.
